Results: patent US8207150B2, “17β-cyano-19-nor-androst-4-ene derivative, its use and medicaments comprising the derivative” (Bayer Pharma AG, priority 2007, dated 2012)
“And” between values parts separate entries of the source, which are not always exact repeats. Equal values may be shown once. Read-outs that look alike come from different tables or passages of the source. Each block holds one compound with its values, some of them ahead of it.

What was measured:
PR = target: T1, PR (Rattus norvegicus, UniProt Q63449); experiment: maintenance of pregnancy test on the rat; assay type: in vivo; conditions: ovarectomized pregnant rats; for PR in vivo ED50: pregnancy-maintaining dose, s.c. once daily with oestrone 5 μg/kg/day
T1 construct: The maintenance of pregnancy test on ovarectomized rats serves for the determination of the peripheral gestagenic activity of a compound; from tissue; host or cells: whole animal: pregnant, ovariectomized rats
T1 sequence (Q63449 1-923): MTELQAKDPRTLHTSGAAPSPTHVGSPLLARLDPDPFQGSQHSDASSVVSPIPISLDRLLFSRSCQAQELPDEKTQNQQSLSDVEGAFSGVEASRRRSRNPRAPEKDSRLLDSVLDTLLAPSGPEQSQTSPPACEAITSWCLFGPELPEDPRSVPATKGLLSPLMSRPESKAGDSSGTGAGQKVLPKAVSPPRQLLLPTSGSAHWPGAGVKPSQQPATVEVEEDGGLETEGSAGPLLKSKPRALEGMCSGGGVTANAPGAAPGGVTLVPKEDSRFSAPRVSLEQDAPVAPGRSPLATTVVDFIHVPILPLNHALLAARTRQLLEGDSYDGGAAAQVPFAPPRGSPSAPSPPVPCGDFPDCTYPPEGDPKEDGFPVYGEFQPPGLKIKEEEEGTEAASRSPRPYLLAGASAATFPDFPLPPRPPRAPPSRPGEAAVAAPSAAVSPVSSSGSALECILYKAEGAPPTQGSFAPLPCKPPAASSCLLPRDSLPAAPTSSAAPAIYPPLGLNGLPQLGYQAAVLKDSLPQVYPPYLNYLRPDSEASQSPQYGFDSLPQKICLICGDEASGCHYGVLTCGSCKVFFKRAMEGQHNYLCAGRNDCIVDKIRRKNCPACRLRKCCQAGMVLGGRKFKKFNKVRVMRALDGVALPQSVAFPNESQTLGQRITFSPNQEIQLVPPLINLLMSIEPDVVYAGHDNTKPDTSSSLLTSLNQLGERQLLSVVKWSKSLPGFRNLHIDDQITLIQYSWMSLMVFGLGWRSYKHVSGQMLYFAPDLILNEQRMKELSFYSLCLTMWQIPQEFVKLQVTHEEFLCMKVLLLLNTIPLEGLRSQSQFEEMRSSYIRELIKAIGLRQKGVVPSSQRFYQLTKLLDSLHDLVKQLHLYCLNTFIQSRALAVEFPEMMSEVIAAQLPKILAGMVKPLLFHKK
Description: Carrying out the maintenance of pregnancy test on the rat:
In pregnant rats, the removal of the corpora lutea or oophorectomy induces an abortion. By means of the exogenous administration of progestins (gestagens) in combination with a suitable dose of an oestrogen, the maintenance of pregnancy is possible. The maintenance of pregnancy test on ovarectomized rats serves for the determination of the peripheral gestagenic activity of a compound.
Rats were paired overnight during proestrus. Pairing was checked on the morning of the following day by the appraisal of a vaginal smear. The presence of the sperm was evaluated here as day 1 of a commencing pregnancy. On day 8 of the pregnancy, the animals were ovarectomized under ether anaesthesia. The treatment with test compound and exogenous oestrogen (oestrone, 5 μg/kg/day) was carried out subcutaneously once daily from day 8 to day 15 or day 21 of the pregnancy. The first administration on day 8 was carried out two hours before oophorectomy. Intact control animals were given exclusively vehicle.
At the end of the experiment (day 15 or day 21), the animals were sacrificed under a CO2 atmosphere, and live foetuses (foetuses having a beating heart) and implantation sites (early resorptions and dead foetuses including autolysis and atrophic placentas) were counted in both uterine horns. On day 22, it was moreover possible to examine foetuses for malformations. In uteri without foetuses or implantation sites, the number of nidation sites was determined by staining with 10% strength ammonium sulphide solution. The maintenance of pregnancy rate was calculated as the quotient of the number of living foetuses and the total number of nidation sites (both resorbed and dead foetuses and nidation sites). For drospirenone, this value is 3.5 mg/kg/day.

[1] = target: T2, mineralcorticoid receptor (Homo sapiens, UniProt P08235); experiment: MR antagonism, luciferase reporter cell line assay; assay type: cell-based; conditions: 16 hours incubation, luminescence
T2 sequence (P08235 1-984): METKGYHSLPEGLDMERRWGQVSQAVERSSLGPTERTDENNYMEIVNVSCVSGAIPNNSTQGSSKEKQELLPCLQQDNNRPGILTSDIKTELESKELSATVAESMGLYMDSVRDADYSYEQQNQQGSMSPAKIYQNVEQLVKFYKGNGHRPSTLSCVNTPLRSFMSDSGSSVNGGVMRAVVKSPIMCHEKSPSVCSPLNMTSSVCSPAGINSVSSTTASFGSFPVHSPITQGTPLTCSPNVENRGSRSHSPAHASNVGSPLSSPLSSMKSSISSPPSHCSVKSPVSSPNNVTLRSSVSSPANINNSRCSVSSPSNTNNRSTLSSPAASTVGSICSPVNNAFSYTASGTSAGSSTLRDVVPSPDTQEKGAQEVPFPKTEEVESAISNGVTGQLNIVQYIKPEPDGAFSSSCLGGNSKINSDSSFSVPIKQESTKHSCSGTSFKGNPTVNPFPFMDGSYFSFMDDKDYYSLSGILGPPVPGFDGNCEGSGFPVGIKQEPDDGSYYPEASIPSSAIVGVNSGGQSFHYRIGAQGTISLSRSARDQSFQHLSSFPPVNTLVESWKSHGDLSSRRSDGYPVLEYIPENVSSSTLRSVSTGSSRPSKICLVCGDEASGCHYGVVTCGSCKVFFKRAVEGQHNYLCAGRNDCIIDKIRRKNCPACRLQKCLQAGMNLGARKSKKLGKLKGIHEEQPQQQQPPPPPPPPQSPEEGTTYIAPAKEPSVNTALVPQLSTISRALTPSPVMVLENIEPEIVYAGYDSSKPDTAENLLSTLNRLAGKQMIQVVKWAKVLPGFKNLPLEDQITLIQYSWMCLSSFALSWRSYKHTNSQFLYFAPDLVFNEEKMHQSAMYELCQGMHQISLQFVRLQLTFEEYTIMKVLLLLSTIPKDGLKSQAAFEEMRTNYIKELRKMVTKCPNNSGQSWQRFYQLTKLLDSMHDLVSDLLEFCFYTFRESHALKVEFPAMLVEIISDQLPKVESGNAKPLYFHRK
Experimental: The derivatives according to the invention having the general chemical formula 1 have a very strong gestagenic activity. […] They should therefore have in vivo potassium-retaining, natriuretic (antimeralcorticoid) action. These properties were determined using the test described below:
For the culturing of the cells used for the assay, the culture medium used was DMEM (Dulbecco's Modified Eagle Medium: […] of glucose; PAA, #E15-009) with 10% FCS (Biochrom, S0115, batch #615B), 4 mM L-glutamine, 1% penicillin/streptomycin, 1 mg/ml of G418 and 0.5 μg/ml of puromycin.
Reporter cell lines were grown in a density of 4×10^4 cells per hollow in white, nontransparent tissue culture plates in each case having 96 hollows (PerkinElmer, #P12-106-017) and kept in 6% DCC—FCS (activated carbon-treated serum, for the removal of interfering components contained in the serum). The compounds to be investigated were added eight days later, and the cells were incubated with the compounds for 16 hours. The experiments were carried out in triplicate. At the end of the incubation, the effector-containing medium was removed and replaced by lysis buffer. After luciferase assay substrate (promega, #E1501) had been added, the plates containing the 96 hollows were then introduced into a microplate luminometer (Pherastar, BMG labtech), and the luminescence was measured. The IC50 values were evaluated using software for the calculation of dose-activity relationships.

[2] = reporter cell lines, read-out: MR Antagonism IC50
[3] = MR Antagonism IC50, reporter cell lines

Compound: C[C@]12CC[C@H]3[C@@H](CCC4=CC(=O)CC[C@@H]43)[C@@H]1[C@@H]1C[C@@H]1[C@@H]2C#N [17β-Cyano-15β,16β-methylene-19-nor-androst-4-en-3-one]
PR in vivo ED50 (PR): 0.84 mg/kg/d s.c.
MR Antagonism activity [% of the maximum effect] ([1]; reporter cell lines): 95.57 % of the maximum effect
IC50 [1, 2]: 4.5 nM

Compound: CC[C@]1(C#N)[C@H]2C[C@H]2[C@H]2[C@@H]3[C@@H]4C[C@@H]4C4=CC(=O)CC[C@@H]4[C@H]3CC[C@@]21C (single isomer, unassigned) [17β-cyano-17α-ethyl-6α,7α-methylene-15β,16β-methylene-19-nor-androst-4-en-3-one]
PR in vivo ED50 (PR): 0.22 mg/kg/d s.c.
IC50 [1, 3]: 90.2 nM

Compound: C[C@]1(C#N)[C@H]2C[C@H]2[C@H]2[C@@H]3CCC4=CC(=O)CC[C@@H]4[C@H]3CC[C@@]21C [17β-Cyano-17α-methyl-15β,16β-methylene-19-nor-androst-4-en-3-one]
PR in vivo ED50 (PR): 0.8 mg/kg/d s.c.
MR Antagonism activity [% of the maximum effect] ([1]; reporter cell lines): 96.00 % of the maximum effect
IC50 [1, 2]: 29 nM

Compound: C[C@@H]1CC2=CC(=O)CC[C@@H]2[C@H]2CC[C@]3(C)[C@@H](C#N)CC[C@H]3[C@@H]21 [17β-Cyano-7α-methyl-19-nor-androst-4-en-3-one]
PR in vivo ED50 (PR): 0.33 mg/kg/d s.c.
MR Antagonism activity [% of the maximum effect] ([1]; reporter cell lines): 108.02 % of the maximum effect
IC50 [1, 2]: 8.2 nM

Compound: C[C@]12CC[C@H]3[C@@H](CCC4=CC(=O)CC[C@@H]43)[C@@H]1[C@H]1C[C@H]1[C@@H]2C#N [17β-Cyano-15α,16α-methylene-19-nor-androst-4-en-3-one]
PR in vivo ED50 (PR): 0.8 mg/kg/d s.c.
MR Antagonism activity [% of the maximum effect] ([1]; reporter cell lines): 93.01 % of the maximum effect
IC50 [1, 2]: 16 nM

Compound: C[C@]12CC[C@H]3[C@@H](C=CC4=CC(=O)CC[C@@H]43)[C@@H]1[C@@H]1C[C@@H]1[C@@H]2C#N [17β-Cyano-15β,16β-methylene-19-nor-androsta-4,6-dien-3-one]
PR in vivo ED50 (PR): 3.3 mg/kg/d s.c.
MR Antagonism activity [% of the maximum effect] ([1]; reporter cell lines): 108.51 % of the maximum effect
IC50 [1, 2]: 15 nM

Compound: C[C@]1(C#N)[C@H]2C[C@H]2[C@H]2[C@@H]3C=CC4=CC(=O)CC[C@@H]4[C@H]3CC[C@@]21C [17β-Cyano-17α-methyl-15β,16β-methylene-19-nor-androsta-4,6-dien-3-one]
PR in vivo ED50 (PR): 2.1 mg/kg/d s.c.
MR Antagonism activity [% of the maximum effect] ([1]; reporter cell lines): 114 % of the maximum effect
IC50 [1, 2]: 190 nM

pregnancy-maintaining dose (ED50) (PR; subcutaneously once daily with oestrone 5 μg/kg/day): 3.5 mg/kg/day
Compound: C[C@]12CCC(=O)C=C1[C@@H]1C[C@@H]1[C@H]1[C@@H]3[C@@H]4C[C@@H]4[C@@]4(CCC(=O)O4)[C@@]3(C)CC[C@@H]12 [drospirenone, 6β,7β-15β,16β-dimethylene-3-oxo-17-pregn-4-ene-21,17β-carbolactone, reference compound]

Compound: C[C@@H]1CC2=CC(=O)CC[C@@H]2[C@H]2CC[C@@]3(C)[C@@H](CC[C@]3(C)C#N)[C@@H]21 [17β-Cyano-7α,17α-bismethyl-19-nor-androst-4-en-3-one]
PR in vivo ED50 (PR): 1 .0 mg/kg/d s.c.
IC50 [1, 3]: 31 nM
MR Antagonism activity [% of the maximum effect] ([1]; reporter cell lines): 96.20 % of the maximum effect

Compound: C[C@@H]1CC2=CC(=O)CC[C@@H]2[C@H]2CC[C@@]3(C)[C@@H]([C@@H]4C[C@@H]4[C@@H]3C#N)[C@@H]21 (single isomer, unassigned) [17β-Cyano-15β,16β-methylene-7α-methyl-19-nor-androst-4-en-3-one]
IC50 [1, 3]: 8.3 nM and 10.3 nM

Compound: CC[C@]1(C#N)[C@H]2C[C@H]2[C@H]2[C@@H]3CCC4=CC(=O)CC[C@@H]4[C@H]3CC[C@@]21C [17β-Cyano-17α-ethyl-15β,16β-methylene-19-nor-androst-4-en-3-one]
PR in vivo ED50 (PR): 1.9 mg/kg/d s.c.
MR Antagonism activity [% of the maximum effect] ([1]; reporter cell lines): 106.4 % of the maximum effect
IC50 [1, 2]: 440 nM
